The values that follow come from US6689754B1, “Heterocyclic glycyl β-alanine derivatives” (G. D. Searle & Co., priority 1998, dated 2004).

The first test has as its target T1, Human vitronectin receptor (αvβ3) (Homo sapiens, UniProt P05106+P06756).
T1 construct: Human vitronectin receptor (αvβ3) was purified from human placenta; from tissue; host or cells: human placenta
Kind of test: Vitronectin adhesion assay: solid phase receptor assay, competition with biotinylated vitronectin. In kind it is binding. Conditions: purified human vitronectin receptor; 1 nM biotinylated vitronectin. As for the experimental part: Vitronectin Adhesion Assay
Human vitronectin receptor (αvβ3) was purified from human placenta as previously described [Pytela et al., Methods in Enzymology, 144:475-489 (1987)]. Human vitronectin was purified from fresh frozen plasma as previously described [Yatohgo et al., Cell Structure and Function, 13:281-292 (1988)]. Biotinylated human vitronectin was prepared by coupling NHS-biotin from Pierce Chemical Company (Rockford, Ill.) to purified vitronectin as previously described [Charo et al., J. Biol. Chem., 266(3):1415-1421 (1991)]. Assay buffer, OPD substrate tablets, and RIA grade BSA were obtained from Sigma (St. Louis, Mo.). Anti-biotin antibody was obtained from Calbiochem (La Jolla, Calif.). Linbro microtiter plates were obtained from Flow Labs (McLean, Va.). ADP reagent was obtained from Sigma (St. Louis, Mo.).
This assay was essentially the same as previously reported [Niiya et al., Blood, 70:475-483 (1987)]. The purified human vitronectin receptor (αvβ3) was diluted from stock solutions to 1.0 μg/mL in Tris-buffered saline containing 1.0 mM Ca^++, Mg^++, and Mn^++, pH 7.4 (TBS^+++). The diluted receptor was immediately transferred to Linbro microtiter plates at 100 μL/well (100 ng receptor/well). The plates were sealed and incubated overnight at 4° C. to allow the receptor to bind to the wells. All remaining steps were at room temperature. The assay plates were emptied and 200 μL of 1% RIA grade BSA in TBS^+++ (TBS^+++/BSA) were added to block exposed plastic surfaces. Following a 2 hour incubation, the assay plates were washed with TBS^+++ using a 96 well plate washer. Logarithmic serial dilution of the test compound and controls were made starting at a stock concentration of 2 mM and using 2 nM biotinylated vitronectin in TBS^+++/BSA as the diluent. This premixing of labeled ligand with test (or control) ligand, and subsequent transfer of 50 μL aliquots to the assay plate was carried out with a CETUS Propette robot; the final concentration of the labeled ligand was 1 nM and the highest concentration of test compound was 1.0×10^−4 M. The competition occurred for two hours after which all wells were washed with a plate washer as before. Affinity purified horseradish peroxidase labeled goat anti-biotin antibody was diluted 1:3000 in TBS^+++/BSA and 125 μL were added to each well. After 30 minutes, the plates were washed and incubated with OPD/H2O2 substrate in 100 mM/L Citrate buffer, pH 5.0. The plate was read with a microtiter plate reader at a wavelength of 450 nm and when the maximum-binding control wells reached an absorbance of about 1.0, the final A450 were recorded for analysis. The data were analyzed using a macro written for use with the EXCELJ spreadsheet program. The mean, standard deviation, and % CV were determined for duplicate concentrations. The mean A450 values were normalized to the mean of four maximum-binding controls (no competitor added)(B-MAX). The normalized values were subjected to a four parameter curve fit algorithm [Rodbard et al., Int.
As a reminder, the IC50 is the concentration that gives 50% inhibition. Read a high IC50 as weaker potency in that assay. In turn, `O=C(O)C[C@@H](NC(=O)CNC(=O)c1c[nH]c(=O)c(NC2=NCC(O)CN2)c1)c1cc(Cl)cc(Cl)c1O` (stereo partly shown) [Example 41] yielded an IC50 of 0.0102 µM.

Turning to `O=C(O)C[C@H](NC(=O)CNC(=O)c1cc(NC2=NCC(O)CN2)[nH]c(=O)c1)c1cc(Cl)cc(Cl)c1O` (stereo partly shown) [Example 42], the IC50 was determined as 0.0031 µM.

Regarding `O=C(O)C[C@H](NC(=O)CNC(=O)c1cc(NC2=NCC(O)CN2)[nH]c(=O)c1)c1cc(Cl)cc(Br)c1O` (stereo partly shown) [Example 43], the IC50 stood at 0.0065 µM.

Molecule `Nc1ncc(C(=O)NCC(=O)NC(CC(=O)O)c2cc(Cl)cc(Cl)c2O)cc1NC1=NCC(O)CN1` (stereo not shown) [Example 44] came in with an IC50 of 0.0421 µM.

`O=C(O)C[C@H](NC(=O)CNC(=O)c1sccc1CNC1=NCC(O)CN1)c1cc(Cl)cc(Cl)c1O` (stereo partly shown) [Example 45] came in with a half-inhibitory concentration (IC50) of 1.09 µM.

The molecule `COCCN/C(N)=N/c1cc(C(=O)NCC(=O)N[C@@H](CC(=O)O)c2cc(Cl)cc(Cl)c2O)c[nH]c1=O` [Example 46] gave an IC50 of 0.00197 µM.

As for `CC1(C)CN=C(Nc2cc(C(=O)NCC(=O)N[C@@H](CC(=O)O)c3cc(Cl)cc(Cl)c3O)c[nH]c2=O)NC1` [Example 47], the half-inhibitory concentration (IC50) is 0.00099 µM.

`O=C(O)C[C@@H](NC(=O)CNC(=O)c1c[nH]c(=O)c(NC2=NCCN2)c1)c1cc(Cl)cc(Cl)c1O` [Example 48] displayed an IC50 of 0.0043 µM.

For the next test, the target named is T2, Human fibrinogen receptor IIb/IIIa (Homo sapiens, UniProt P05106+P08514).
T2 construct: Human fibrinogen receptor ([…]) was purified from outdated platelets; from tissue; host or cells: outdated human platelets
Kind of test: Purified IIb/IIIa receptor assay: solid phase receptor assay, competition with biotinylated vitronectin. In kind it is binding. Conditions: 1 nM biotinylated vitronectin. The text has this: Purified IIb/IIIa Receptor Assay
Human fibrinogen receptor ([…]) was purified from outdated platelets. (Pytela, R., Pierschbacher, M. D., Argraves, S., Suzuki, S., and Rouslahti, E. “Arginine-Glycine-Aspartic acid adhesion receptors”, Methods in Enzymology 144(1987):475-489.) Human vitronectin was purified from fresh frozen plasma as described in Yatohgo, T., Izumi, M., Kashiwagi, H., and Hayashi, M., “Novel purification of vitronectin from human plasma by heparin affinity chromatography,” Cell Structure and Function 13(1988):281-292. Biotinylated human vitronectin was prepared by coupling NHS-biotin from Pierce Chemical Company (Rockford, Ill.) to purified vitronectin as previously described. (Charo, I. F., Nannizzi, L., Phillips, D. R., Hsu, M. A., Scarborough, R. M., “Inhibition of fibrinogen binding to GP IIb/IIIa by a GP IIIa peptide”, J. Biol. Chem. 266(3)(1991): 1415-1421.) Assay buffer, OPD substrate tablets, and RIA grade BSA were obtained from Sigma (St. Louis, Mo.). Anti-biotin antibody was obtained from Calbiochem (La Jolla, Calif.). Linbro microtiter plates were obtained from Flow Labs (McLean, Vs.). ADP reagent was obtained from Sigma (St. Louis, Mo.).
This assay is essentially the same reported in Niiya, K., Hodson, E., Bader, R., Byers-Ward, V. Koziol, J. A., Plow, E. F. and Ruggeri, Z. M., “Increased surface expression of the membrane glycoprotein IIb/IIIa complex induced by platelet activation: Relationships to the binding of fibrinogen and platelet aggregation”, Blood 70(1987):475-483. The purified human fibrinogen receptor ([…]) was diluted from stock solutions to 1.0 μg/mL in Tris-buffered saline containing 1.0 mM Ca^++, Mg^++, and Mn^++, pH 7.4 (TBS^+++). The diluted receptor was immediately transferred to Linbro microtiter plates at 100 μL/well (100 ng receptor/well). The plates were sealed and incubated overnight at 4° C. to allow the receptor to bind to the wells. All remaining Steps were at room temperature. The assay plates were emptied and 200 μL of 1% RIA grade BSA in TBS^+++ (TBS^+++/BSA) were added to block exposed plastic surfaces. Following a 2 hour incubation, the assay plates were washed with TBS^+++ using a 96 well plate washer. Logarithmic serial dilution of the test compound and controls were made starting at a stock concentration of 2 mM and using 2 nM biotinylated vitronectin in TBS^+++/BSA as the diluent. This premixing of labeled ligand with test (or control) ligand, and subsequent transfer of 50 μL aliquots to the assay plate was carried out with a CETUS Propette robot; the final concentration of the labeled ligand was 1 nM and the highest concentration of test compound was 1.0×10^−4 M. The competition occurred for two hours after which all wells were washed with a plate washer as before. Affinity purified horseradish peroxidase labeled goat anti-biotin antibody was diluted 1:3000 in TBS^+++/BSA and 125 μL were added to each well. After 30 minutes, the plates were washed and incubated with […] substrate in 100 mM/L citrate buffer, pH 5.0. The plate was read with a microtiter plate reader at a wavelength of 450 nm and when the maximum-binding control wells reached an absorbance of about 1.0, the final A450 were recorded for analysis. The data were analyzed using a macro written for use with the EXCELJ spreadsheet program. The mean, standard deviation, and % CV were determined for duplicate concentrations. The mean A450 values were normalized to the mean of four maximum-binding controls (no competitor added)(B-MAX). The normalized values were subjected to a four parameter curve fit algorithm, [Robard et al., Int. Atomic Energy Agency.
The molecule `O=C(O)C[C@@H](NC(=O)CNC(=O)c1c[nH]c(=O)c(NC2=NCC(O)CN2)c1)c1cc(Cl)cc(Cl)c1O` (stereo partly shown) [Example 41] had an IC50 of 35.4 µM.

`O=C(O)C[C@H](NC(=O)CNC(=O)c1cc(NC2=NCC(O)CN2)[nH]c(=O)c1)c1cc(Cl)cc(Cl)c1O` (stereo partly shown) [Example 42] returned an IC50 of 5.95 µM.

Regarding `O=C(O)C[C@H](NC(=O)CNC(=O)c1cc(NC2=NCC(O)CN2)[nH]c(=O)c1)c1cc(Cl)cc(Br)c1O` (stereo partly shown) [Example 43], the IC50 stood at 7.53 µM.

Molecule `Nc1ncc(C(=O)NCC(=O)NC(CC(=O)O)c2cc(Cl)cc(Cl)c2O)cc1NC1=NCC(O)CN1` (stereo not shown) [Example 44] showed a half-maximal inhibitory concentration (IC50) of 1.06 µM.

For the molecule `O=C(O)C[C@H](NC(=O)CNC(=O)c1sccc1CNC1=NCC(O)CN1)c1cc(Cl)cc(Cl)c1O` (stereo partly shown) [Example 45], the IC50 was found to be 1.68 µM.

For `COCCN/C(N)=N/c1cc(C(=O)NCC(=O)N[C@@H](CC(=O)O)c2cc(Cl)cc(Cl)c2O)c[nH]c1=O` [Example 46], the IC50 was found to be 2.69 µM. This IC50 is about 1.6-fold higher than that of the molecule before.

`CC1(C)CN=C(Nc2cc(C(=O)NCC(=O)N[C@@H](CC(=O)O)c3cc(Cl)cc(Cl)c3O)c[nH]c2=O)NC1` [Example 47] came in with a half-maximal inhibitory concentration (IC50) of 6.71 µM.

Regarding `O=C(O)C[C@@H](NC(=O)CNC(=O)c1c[nH]c(=O)c(NC2=NCCN2)c1)c1cc(Cl)cc(Cl)c1O` [Example 48], the IC50 is 27.9 µM.
